Nine compounds from patent US20130296228A1, “EFFLUX PUMP INHIBITORS” (priority 2010, published 2013) can be followed below.

Where “and” joins values, the source holds several entries; their conditions need not be identical. Equal values may be shown once. Read-outs that look alike come from different tables or passages of the source. Residues, ends and D or L forms follow the SMILES beside them.

For assay [1], the system named is MDR clinical isolate of P. aeruginosa 2301. Put plainly: Systemic infection in mice, % survival. The following applies: Table 7, mice, Oral. Type of assay: in vivo.
A further assay deals with P. aeruginosa 23587. Kind of assay: Diameter of zone of inhibition of antimicrobial agents with or without efflux pump inhibitor. It is filed as cell-based. The settings on record: for change of activity in the presence of PAN: clinical isolates P. aeruginosa 23587 and P. aeruginosa 2301; for inhibition of MDR RND efflux pumps, concluded from potentiation: clinical isolates of P. aeruginosa. An excerpt: Since RND efflux pumps operate by utilizing energy in […], metabolic inhibitor, sodium azide brings about MDR RND pump inhibition by causing energy deprivation.

Assay [2] deals with P. aeruginosa 2301. The assay is described as above. The following applies: for Diameter of zone of inhibition: P. aeruginosa 2301. Type of assay: cell-based.
The subject of assay [3] is P. aeruginosa 2301. Kind of assay: Survival of high density inoculation in MHA medium. It is filed as cell-based. The settings on record: high density inoculation 2-5 × 10^9 CFU/ml; 20 mcg/ml in MHA medium. An excerpt: In a most surprising manner, the combination of ceftazidime and azithromycin and tigecycline respectively brought about more than 7 log reduction in the bacterial count as compared to individual effects in highly resistant Pseudomonas strain. Moreover in a very unusual and surprising manner this tremendous bactericidal effect is taking place at concentrations much below than their individual inhibitory concentrations. […] It is also likely that ceftazidime interacts with outer membrane porins and acts as a porin modulator. Bacalum et al. have shown that ceftazidime binds to outer membrane porins with high affinity (Bacalum et al. Romanian. J. Biophys., 19, 105-116, 2009).

Where [4] appears, read: Table 1, P. aeruginosa 23587, +PAN (20 μg/ml), 12.5 μg/well.
Where [5] appears, read: Table 2, P. aeruginosa (23587), +sodium azide (10 μg/ml), 50 μg/well.
[6] abbreviates: Table 2, P. aeruginosa (23587), +sodium azide (10 μg/ml), 100 μg/well.
The mark [7] stands for this setting: Table 2, P. aeruginosa (23587), +sodium azide (10 μg/ml), 200 μg/well.
Setting [8] is: Table 1, +PAN (20 μg/ml), 12.5 μg/well.

Turning to `CS(=O)(=O)O.C[C@H](N)C(=O)OC1CCN(c2c(F)cc3c(=O)c(C(=O)O)cn4c3c2CC[C@@H]4C)CC1` [2′S,5S-(−)-9-Fluoro-8-(4-alaninyloxy-piperidin-1-yl)-5-methyl-6,7-dihydro-1-oxo-1H,5H-benzo[i,j]quinolizine-2-carboxylic acid methane sulfonic acid salt], the “% survival” value was 0% in assay [1] (50 mg/kg BID × 1 day), 16.6% in assay [1] (75 mg/kg BID × 1 day) and 16.6% in assay [1] (100 mg/kg BID × 1 day).

Consider `CC[C@H]1OC(=O)[C@H](C)[C@@H](O[C@H]2C[C@@](C)(OC)[C@@H](O)[C@H](C)O2)[C@H](C)[C@@H](O[C@@H]2O[C@H](C)C[C@H](N(C)C)[C@H]2O)[C@](C)(O)C[C@@H](C)CN(C)[C@H](C)[C@@H](O)[C@]1(C)O` [Azithromycin, azithromycin], for which, in the assay with P. aeruginosa 23587, the “change of activity in presence of reserpine” value is given as “no change”. In the assay on P. aeruginosa 23587, the “change of activity on addition of sodium azide” value is “potentiated”. Besides, the “change of activity in the presence of cefepime and ceftazidime” value with P. aeruginosa 23587 (Example 3) and with P. aeruginosa 2301 [2] (Example 6) was “significant potentiation” each time. Moreover, the “Diameter of zone of inhibition” value with P. aeruginosa 23587 (setting [4]) is 16 m.m; with P. aeruginosa 23587 (Table 1, P. aeruginosa 23587, +PAN (20 μg/ml), 25 μg/well), 23.5 m.m; in the assay with P. aeruginosa 23587 (Table 1, P. aeruginosa 23587, +PAN (20 μg/ml), 50 μg/well), 27 m.m; with P. aeruginosa 23587 (Table 1, P. aeruginosa 23587, Control, 25 μg/well), 19H; in the assay with P. aeruginosa 23587 (Table 1, P. aeruginosa 23587, Control, 50 μg/well) it was 23H; in the assay with P. aeruginosa 23587 (Table 2, P. aeruginosa (23587), +Reserpine (25 μg/ml), 50 μg/well), 12H. The “Diameter of zone of inhibition” value in the assay on P. aeruginosa 23587 (Table 2, P. aeruginosa (23587), +Reserpine (25 μg/ml), 100 μg/well) is reported as 20H; in the assay with P. aeruginosa 23587 (Table 2, P. aeruginosa (23587), +Reserpine (25 μg/ml), 200 μg/well), 24H; in the assay on P. aeruginosa 23587 (setting [5]) it was 21H; with P. aeruginosa 23587 (setting [6]) it was 24H; in the assay on P. aeruginosa 23587 (setting [7]), 30 m.m; in the assay on P. aeruginosa 23587 (Table 2, P. aeruginosa (23587), Control, 50 μg/well), 12H. For the same compound, the “Diameter of zone of inhibition” value was found to be 20H in the assay on P. aeruginosa 23587 (Table 2, P. aeruginosa (23587), Control, 100 μg/well); 24H in the assay on P. aeruginosa 23587 (Table 2, P. aeruginosa (23587), Control, 200 μg/well); 28H in the assay on P. aeruginosa 23587 (Table 3, P. aeruginosa 23587, +Cefepime (1 μg/ml), 100 μg/Well); 30H with P. aeruginosa 23587 (Table 3, P. aeruginosa 23587, +Cefepime (1 μg/ml), 200 μg/Well); 36 m.m in the assay with P. aeruginosa 23587 (Table 3, P. aeruginosa 23587, +Ceftazidime (1 μg/ml), 100 μg/Well); 42 m.m in the assay on P. aeruginosa 23587 (Table 3, P. aeruginosa 23587, +Ceftazidime (1 μg/ml), 200 μg/Well). In addition, the “Diameter of zone of inhibition” value with P. aeruginosa 23587 (Table 3, P. aeruginosa 23587, Control, 100 μg/Well) was 20H; in the assay on P. aeruginosa 23587 (Table 3, P. aeruginosa 23587, Control, 200 μg/Well), 24H; with P. aeruginosa 2301 [2] (setting [8]), 25 m.m; in the assay with P. aeruginosa 2301 [2] (Table 1, +PAN (20 μg/ml), 25 μg/well), 28 m.m; in the assay with P. aeruginosa 2301 [2] (Table 1, +PAN (20 μg/ml), 50 μg/well), 32 m.m; with P. aeruginosa 2301 [2] (Table 1, Control, 25 μg/well), “SLI”. Also, the “Diameter of zone of inhibition” value in the assay on P. aeruginosa 2301 [2] (Table 1, Control, 50 μg/well) is recorded as 13.5H; in the assay with P. aeruginosa 2301 [2] (Table 6, +Cefepime (2 μg/ml), 50 μg/Well) it was 24H; in the assay on P. aeruginosa 2301 [2] (Table 6, +Cefepime (2 μg/ml), 100 μg/Well) it was 28H; in the assay with P. aeruginosa 2301 [2] (Table 6, +Cefepime (2 μg/ml), 200 μg/Well), 30H; with P. aeruginosa 2301 [2] (Table 6, +Ceftazidime (0.5 μg/ml), 50 μg/Well) it was 32H; with P. aeruginosa 2301 [2] (Table 6, +Ceftazidime (0.5 μg/ml), 100 μg/Well), 36H. The “Diameter of zone of inhibition” value in the assay on P. aeruginosa 2301 [2] (Table 6, +Ceftazidime (0.5 μg/ml), 200 μg/Well) came out at 42H; in the assay with P. aeruginosa 2301 [2] (Table 6, Control, 50 μg/Well) it was 12H; in the assay on P. aeruginosa 2301 [2] (Table 6, Control, 100 μg/Well), 20H; with P. aeruginosa 2301 [2] (Table 6, Control, 200 μg/Well), 24H. Further, the “change of activity in the presence of PAN” value (“change of activity … of PAN” below) in the assay on P. aeruginosa 23587 was “Synergistic enhancement”. In addition, in the assay with P. aeruginosa 2301 [3], the “CFU/ml at 48 h” value was >5 × 10^9 CFU/ml.

Consider `CO/N=C(\C(=O)N[C@@H]1C(=O)N2C(C(=O)[O-])=C(C[N+]3(C)CCCC3)CS[C@H]12)c1csc(N)n1` [Cefepime, cefepime], for which the “inhibition of MDR RND efflux pumps, concluded from potentiation” value (shortened to “inhibition of MDR RND efflux pumps”) in the assay on P. aeruginosa 23587 is listed as “inhibit RND pumps”.

`CC[n+]1c(-c2ccccc2)c2cc(N)ccc2c2ccc(N)cc21` [Ethidium Bromide, ethidium bromide]: the “Diameter of zone of inhibition” value in the assay on P. aeruginosa 23587 (setting [5]) is 10H; in the assay with P. aeruginosa 23587 (setting [6]), 13H; in the assay on P. aeruginosa 23587 (setting [7]) it was 16H.

`NC(N)=NCCCC(NC(=O)[C@@H](N)Cc1ccccc1)C(=O)Nc1ccc2ccccc2c1` (stereo partly drawn) [PAN, Phe-Arg-beta-naphthylamide] (HELM PEPTIDE1{F.[N=C(N)NCCCC(N[*:1])C(=O)[*:2]].[c1ccc2cc(N[*:1])ccc2c1]}$$$$V2.0): the “inhibition of MDR RND efflux pumps” value in the assay with P. aeruginosa 23587 is “efflux inhibition”.

Turning to `CN(C)c1cc(NC(=O)CNC(C)(C)C)c(O)c2c1C[C@H]1C[C@H]3[C@H](N(C)C)C(O)=C(C(N)=O)C(=O)[C@@]3(O)C(O)=C1C2=O` [Tigecycline, tigecycline], the “CFU/ml at 48 h” value in the assay with P. aeruginosa 2301 [3] is listed as >5 × 10^9 CFU/ml.

`CC(=O)NC[C@H]1CN(c2ccc(N3CCOCC3)c(F)c2)C(=O)O1` [linezolid]: the “change of activity … of PAN” value with P. aeruginosa 23587 is “Synergistic enhancement”.

In the case of `COC(=O)[C@H]1[C@H]2C[C@@H]3c4[nH]c5cc(OC)ccc5c4CCN3C[C@H]2C[C@@H](OC(=O)c2cc(OC)c(OC)c(OC)c2)[C@@H]1OC` [reserpine], the “inhibition of MDR RND efflux pumps” value with P. aeruginosa 23587 is reported as “non inhibition”.

In the case of colistin, the “Diameter of zone of inhibition” value with P. aeruginosa 23587 is 12.5 m.m. and 14 m.m. and 16.5 m.m. and 11.5 m.m. and 16 m.m; with P. aeruginosa 23587 (setting [4]), 16.5 m.m; in the assay with P. aeruginosa 23587 (Table 2, P. aeruginosa (23587), +Reserpine (25 μg/ml), 12.5 μg/well), 16 m.m; in the assay on P. aeruginosa 23587 (Table 2, P. aeruginosa (23587), +sodium azide (10 μg/ml), 12.5 μg/well) it was 16 m.m; in the assay on P. aeruginosa 23587 (Table 3, P. aeruginosa 23587, +Cefepime (1 μg/ml), 12.5 μg/Well), 16 m.m; in the assay with P. aeruginosa 23587 (Table 3, P. aeruginosa 23587, +Ceftazidime (1 μg/ml), 12.5 μg/Well) it was 16 m.m. Further, the “Diameter of zone of inhibition” value with P. aeruginosa 2301 [2] (setting [8]) is given as 16 m.m; with P. aeruginosa 2301 [2] (Table 6, +Cefepime (2 μg/ml), 12.5 μg/Well) it was 16 m.m; with P. aeruginosa 2301 [2] (Table 6, +Ceftazidime (0.5 μg/ml), 12.5 μg/Well), 16 m.m. Besides, the “change of activity … of PAN” value with P. aeruginosa 23587 is “no change”.
